Test results as given in US20240360154A1, “AROYL SUBSTITUTED TRICYCLIC COMPOUND, PREPARATION METHOD THEREFOR AND USE THEREOF” (GENFLEET THERAPEUTICS (SHANGHAI) INC., priority 2020, published 2024).

Assays:
[1] = target: p-BTK (C481S) (Homo sapiens (Human), UniProt Q06187, C481S); assay: p-BTK cell experiment, HEK293 transfected with C481S-BTK plasmid (P-BTK Y223 sandwich ELISA); type: cell-based; conditions: HEK293 cells, compound cultured for two hours
Procedure: (§1) Day 1: HEK293 cells (ADDEXBIO, T0011001) at logarithmic growth phase were taken, digested with enzyme EDTA, collected and counted, and 2E6 cells were inoculated in a 10 cm culture dish and cultured overnight. Day 2: A mixed solution containing 6 μg of WT-BTK/C481S-BTK plasmid and 18 μL of FuGENE HD transfection reagent was prepared by using 1000 μL of Opti-MEM. After standing at room temperature for 10 minutes, the mixed solution was slowly added to the culture dish with a pipettor and cultured overnight. Day 3: The culture dish was taken out, and the cells were digested with enzyme EDTA, collected and counted, and 1E4 cells were inoculated in a 96-well cell culture plate and cultured overnight. A 3.16-fold gradient concentration stock solution of 1000× compound was prepared using DMSO, and placed at room temperature. Day 4: A prepared 1000× compound stock solution was taken, and diluted 200-fold to 5× compound stock solution with culture medium. 5× compound stock solution was added to each cell culture well with a final concentration of 1× compound stock solution and a DMSO content of 0.1%. DMSO was used as an experimental control. After the compound was added and cultured for two hours, the residual culture medium was removed. 100 μL of cell lysis buffer was added to each well, stood on ice for 30 minutes, and ultrasonically lysed with ice water for 5 minutes. After diluting the cell lysate in proportion, 80 μL of the mixture was transfer to an ELISA plate, and 80 μL of cell lysis buffer was added to the blank well. After incubating in an incubator at 37° C. for 2 hours, the plate was taken and the antibody incubation and color development termination operation were completed according to the instructions of Pathscan P-BTK (Y223) Sandwich ELISA Kit (Cell Signaling #23843 CA), and finally the OD value was read. The inhibition rate of the compound (%)=(ODcontrol−ODcompound)/(ODcontrol−ODblank)×100% was calculated. The compound gradient dilution concentration and the corresponding cell proliferation inhibition rate were fit by using Prism 8 four-parameter method, and IC50 value was calculated.

[2] = target: p-BTK (WT) (Homo sapiens (Human), UniProt Q06187); assay: p-BTK cell experiment, HEK293 transfected with WT-BTK plasmid (P-BTK Y223 sandwich ELISA); type: cell-based; conditions: HEK293 cells, compound cultured for two hours
Chain of p-BTK (WT) (Q06187 whole entry): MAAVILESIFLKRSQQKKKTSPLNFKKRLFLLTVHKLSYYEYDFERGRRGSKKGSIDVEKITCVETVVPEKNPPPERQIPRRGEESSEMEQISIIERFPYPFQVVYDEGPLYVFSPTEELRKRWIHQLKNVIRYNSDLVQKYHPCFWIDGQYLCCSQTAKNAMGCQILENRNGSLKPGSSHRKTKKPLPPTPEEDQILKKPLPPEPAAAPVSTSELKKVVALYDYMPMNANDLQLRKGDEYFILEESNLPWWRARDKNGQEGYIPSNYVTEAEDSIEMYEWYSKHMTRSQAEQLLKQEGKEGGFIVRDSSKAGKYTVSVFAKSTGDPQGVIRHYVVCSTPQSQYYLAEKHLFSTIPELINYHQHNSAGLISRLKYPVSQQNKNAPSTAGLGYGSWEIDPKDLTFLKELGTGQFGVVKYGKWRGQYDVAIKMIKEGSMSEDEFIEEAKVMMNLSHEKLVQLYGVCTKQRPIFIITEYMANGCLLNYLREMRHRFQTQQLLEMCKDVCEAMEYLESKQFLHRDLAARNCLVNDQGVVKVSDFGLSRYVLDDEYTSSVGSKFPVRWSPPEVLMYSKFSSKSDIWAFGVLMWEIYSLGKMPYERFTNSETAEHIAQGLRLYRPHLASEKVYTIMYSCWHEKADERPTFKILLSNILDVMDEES
Procedure: as §1

[3] = target: BTK (Homo sapiens (Human), UniProt Q06187); assay: BTK enzyme experiment (ADP-Glo kinase assay); type: biochemical; conditions: 10 nM BTK, ATP 125 μM, Poly(Glu4, Tyr1), 90 minutes at 20° C.; read-out: BTK(WT) IC50
Chain of BTK (Q06187 whole entry): as above
In short: (§2)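 Wild-type or C481S BTK, added as 2× solution at 10 nM, preincubated 10 min with 3-fold compound dilutions in 50 mM HEPES pH 7.5, 10 mM MgCl2, 2 mM DTT, 0.0015% Brij-35. ADP-Glo luminescence norm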

[4] = system: TMD-8 cells; assay: TMD-8 proliferation inhibition experiment; type: cell-based; conditions: human diffuse large B lymphoma cells, three days incubation
Procedure: TMD-8 cells are human diffuse large B lymphoma (Mingzhou Bio, MZ-0832), cultured in 10% FBS+1% PS 1640 medium; OCI-LY10 is human diffuse large B lymphoma (BeNa Culture Collection, BNCC337742), cultured in 10% FBS+1% PS IMDM. Day 1: Cells at logarithmic growth phase were taken, counted and inoculated 600 TMD-8 or 2000 OCI-LY10 cells in a 384-well cell culture plate and cultured overnight. Day 2: A 3-fold gradient concentration stock solution of 400× compound was prepared with DMSO, and diluted 40-fold to a 10× compound stock solution with culture medium. The 10× compound stock solution was added to each cell culture well with a final concentration of 1× compound stock solution and a DMSO content of 0.25%. DMSO was used as experimental control, and culture medium was used as blank control. The incubation was continued for three days after compound addition. On the fifth day, 25 μL of […] was added to each well, mixed well and incubated for 10 minutes, then the chemiluminescence value (RLU value) was read. The cell proliferation inhibition rate (%)=(RLUcontrol−RLUcompound)/(RLUcontrol−RLUblank)×100% was calculated. The compound gradient dilution concentration and the corresponding cell proliferation inhibition rate were fit by using XLFit four-parameter method, and IC50 value was calculated.

[5] = target: BTK (C481S) (Homo sapiens (Human), UniProt Q06187, C481S); assay: BTK C481S enzyme experiment (ADP-Glo kinase assay); type: biochemical; conditions: 10 nM BTK C481S, ATP 125 μM, Poly(Glu4, Tyr1), 90 minutes at 20° C.
Chain of BTK (C481S) (Q06187 whole entry C481S): as the sequence (Q06187 whole entry) above, with C481S counted along it
In short: as §2

Chain of p-BTK (C481S) (Q06187 whole entry C481S): as the sequence (Q06187 whole entry) above, with C481S counted along it

| IC50 [1] [nM] | IC50 [2] [nM] | IC50 [3] [nM] | IC50 [5] [nM] | Compound | IC50 ([4]; Homo sapiens, TMD8, 72 h) [nM] | IC50 [4] [nM] | IC50 ([4]; TMD8, 72 h) [nM] |
| --- | --- | --- | --- | --- | --- | --- | --- |
| 48.2 | 28 | 8.6 | 10.6 | COC[C@]1(C)Nc2c(cnc3[nH]cc(C(=O)c4ccc(Oc5ccccc5F)cc4Cl)c23)NC1=O [Z155, (S)-9-(2-chloro-4-(2-fluorophenoxy)benzoyl)-2-(methoxymethyl)-2-methyl-1,2,4,7-tetrahydro-3H-pyrrolo[3′,2′:5,6]pyrido[3,4-b]pyrazin-3-one] | 87 | – | – |
| 1.4 | 2.8 | 3.9 | 3.9 | COC[C@]1(C)Nc2c(cnc3[nH]cc(C(=O)c4ccc(F)c(F)c4Cl)c23)NC1=O [Z195, (S)-9-(2-chloro-3,4-difluorobenzoyl)-2-(methoxymethyl)-2-methyl-1,2,4,7-tetrahydro-3H-pyrrolo[3′,2′:5,6]pyrido[3,4-b]pyrazin-3-one] | – | – | – |
| 1.6 | 5.2 | 3 | 1.3 | O=C(c1ccccc1Cl)c1c[nH]c2ncc3c(c12)NC1(CCOCC1)C(=O)N3 [Z197, 9′-(2-chlorobenzoyl)-2,3,4′,5,6,7′-hexahydrospiro[pyran-4,2′-pyrrolo[3′,2′:5,6]pyrido[3,4-b]pyrazin]-3′(1′H)-one] | – | – | – |
| – | – | 10 | 16.3 | [2H]C([2H])([2H])OC[C@]1(C)Nc2c(cnc3[nH]cc(C(=O)c4ccc(Oc5nccc(C)c5F)cc4Cl)c23)NC1=O [Z146, (S)-9-(2-chloro-4-((3-fluoro-4-methylpyridin-2-yl)oxy)benzoyl)-2-((methoxy-d3)methyl)-2-methyl-1,2,4,7-tetrahydro-3H-pyrrolo[3′,2′:5,6]pyrido[3,4-b]pyrazin-3-one] | 195 | – | – |
| – | – | 54.2 | 73.9 | COC[C@]1(C)Nc2c(cnc3[nH]cc(C(=O)c4ccc(Oc5cccc(Cl)c5)cc4Cl)c23)NC1=O [Z165, (S)-9-(2-chloro-4-(3-chlorophenoxy)benzoyl)-2-(methoxymethyl)-2-methyl-1,2,4,7-tetrahydro-3H-pyrrolo[3′,2′:5,6]pyrido[3,4-b]pyrazin-3-one] | 366 | – | – |
| – | – | 20 | 10.5 | COC[C@]1(C)Nc2c(cnc3[nH]cc(C(=O)c4ccc(Oc5ccccc5F)cc4F)c23)NC1=O [Z156, (S)-9-(2-fluoro-4-(2-fluorophenoxy)benzoyl)-2-(methoxymethyl)-2-methyl-1,2,4,7-tetrahydro-3H-pyrrolo[3′,2′:5,6]pyrido[3,4-b]pyrazin-3-one] | 117 | – | – |
| – | – | 22.4 | 30.1 | COC[C@]1(C)Nc2c(cnc3[nH]cc(C(=O)c4ccc(Oc5ccccc5Cl)cc4Cl)c23)NC1=O [Z164, (S)-9-(2-chloro-4-(2-chlorophenoxy)benzoyl)-2-(methoxymethyl)-2-methyl-1,2,4,7-tetrahydro-3H-pyrrolo[3′,2′:5,6]pyrido[3,4-b]pyrazin-3-one] | 145 | – | – |

The next lines start with the compound.

| Compound | IC50 [1] [nM] | IC50 [2] [nM] | IC50 [3] [nM] | IC50 [5] [nM] | IC50 ([4]; Homo sapiens, TMD8, 72 h) [nM] | IC50 [4] [nM] | IC50 ([4]; TMD8, 72 h) [nM] |
| --- | --- | --- | --- | --- | --- | --- | --- |
| CC1(C)Nc2c(cnc3[nH]cc(C(=O)c4ccccc4Cl)c23)NC1=O [Z120, 9-(2-chlorobenzoyl)-2,2-dimethyl-1,2,4,7-tetrahydro-3H-pyrrolo[3′,2′:5,6]pyrido[3,4-b]pyrazin-3-one] | 1 | 2.5 | 4.3 | 2 | – | – | – |
| CC(=O)N1CCC2(C1)Nc1c(cnc3[nH]cc(C(=O)c4ccc(Oc5ccccc5)cc4Cl)c13)NC2=O (centres unmarked) [Z4] | 340 | 375 | 17.1 | 10.3 | – | – | – |
| COC[C@]1(C)Nc2c(cnc3[nH]cc(C(=O)c4ccc(Oc5ncccc5F)cc4Cl)c23)NC1=O [Z144, (S)-9-(2-chloro-4-((3-fluoropyridin-2-yl)oxy)benzoyl)-2-(methoxymethyl)-2-methyl-1,2,4,7-tetrahydro-3H-pyrrolo[3′,2′:5,6]pyrido[3,4-b]pyrazin-3-one] | – | – | 11.7 | 16.8 | 227 | – | – |
| COCC[C@@]1(C)Nc2c(cnc3[nH]cc(C(=O)c4ccc(Oc5ccccc5)cc4Cl)c23)NC1=O [Z78-1] | – | – | 27.6 | 28.8 | – | 289 | – |
| CN1CCC2(C1)Nc1c(cnc3[nH]cc(C(=O)c4ccc(Oc5ccccc5)cc4F)c13)NC2=O (centres unmarked) [Z5] | 36.6 | 35.8 | 27.8 | 12 | – | – | – |
| C[C@@]1(COC(F)F)Nc2c(cnc3[nH]cc(C(=O)c4ccc(Oc5ccccc5)cc4Cl)c23)NC1=O [Z139, (S)-9-(2-chloro-4-phenoxybenzoyl)-2-((difluoromethoxy)methyl)-2-methyl-1,2,4,7-tetrahydro-3H-pyrrolo[3′,2′:5,6]pyrido[3,4-b]pyrazin-3-one] | – | – | 37.1 | 22.1 | 106 | – | – |
| CN1C(=O)[C@](C)(CO)Nc2c1cnc1[nH]cc(C(=O)c3ccc(Oc4ccccc4)cc3Cl)c21 (single isomer, unassigned) [Z51-1] | – | – | 52.3 | 34.3 | – | 280 | – |
| COC[C@]1(C)Nc2c(cnc3[nH]cc(C(=O)c4ccc(Oc5cccc(C#N)c5)cc4Cl)c23)NC1=O [Z131, (S)-3-(3-chloro-4-(2-(methoxymethyl)-2-methyl-3-oxo-2,3,4,7-tetrahydro-1H-pyrrolo[3′,2′:5,6]pyrido[3,4-b]pyrazine-9-carbonyl)phenoxy)benzonitrile] | – | – | 26.9 | 37.8 | 307 | – | – |
| COC[C@]1(C)Nc2c(cnc3[nH]cc(C(=O)c4ccc(Oc5cccc(C)n5)cc4Cl)c23)NC1=O [Z124-1, (S)-9-(2-chloro-4-((6-methylpyridin-2-yl)oxy)benzoyl)-2-(methoxymethyl)-2-methyl-1,2,4,7-tetrahydro-3H-pyrrolo[3′,2′:5,6]pyrido[3,4-b]pyrazin-3-one] | – | – | 24.5 | 30.1 | – | – | 199 |
| CC1(C)Nc2c(cnc3[nH]cc(C(=O)c4ccc(Oc5ccccc5)cc4Cl)c23)N(CCO)C1=O [Z15] | – | – | 57.4 | 71.7 | – | 626 | – |
| O=C(c1ccc(Oc2ccccc2)cc1Cl)c1c[nH]c2ncc3c(c12)N[C@@]1(CC[C@H](O)C1)C(=O)N3 (single isomer, unassigned) [Z24-1] | – | – | 3.5 | 3.7 | – | 55.4 | – |
| CN1CCC2(C1)Nc1c(cnc3[nH]cc(C(=O)c4ccc(Oc5cccc(F)c5)cc4Cl)c13)NC2=O (centres unmarked) [Z7] | – | – | 28.3 | 17.8 | – | 258 | – |
| COCC1(C)Nc2c(cnc3[nH]cc(C(=O)c4ccc(Oc5ccccc5)cc4F)c23)NC1=O (centres unmarked) [Z71] | – | – | 20.2 | 21.3 | – | 171 | – |
| COCC1(C)Nc2c(cnc3[nH]cc(C(=O)c4ccc(Oc5cc(C)ccn5)cc4Cl)c23)NC1=O (centres unmarked) [Z64, 9-(2-chloro-4-((4-methylpyridin-2-yl)oxy)benzoyl)-2-(methoxymethyl)-2-methyl-1,2,4,7-tetrahydro-3H-pyrrolo[3′,2′:5,6]pyrido[3,4-b]pyrazin-3-one] | 90 | 65.8 | 6.5 | 13.3 | – | – | – |
| CN1CC2(C1)Nc1c(cnc3[nH]cc(C(=O)c4ccc(Oc5ccccc5)cc4Cl)c13)NC2=O [Z11, 9′-(2-chloro-4-phenoxybenzoyl)-1-methyl-4′,7′-dihydrospiro[azetidine-3,2′-pyrrolo[3′,2′:5,6]pyrido[3,4-b]pyrazin]-3′(1′H)-one] | – | – | 54.4 | 21.3 | 372 | – | – |
